These are literature values, as cited in patent publication US9820936B2, “Oral controlled release pharmaceutical compositions of Bepotastine” (LUPIN LIMITED, priority 2011, dated 2017).

For this data set the following is noted: background statement.

As for `O=C(O)CCCN1CCC(O[C@@H](c2ccc(Cl)cc2)c2ccccn2)CC1` [Bepotastine, (+)-(S)-4-[4-[(4-Chlorophenyl)(2-pyridyl)methoxy]piperidino]butyric acid], the half life was 2.4 ± 0.1 h.
